Laboratory results published in US9649314B2, “Pyrimido[4,5-b]quinoline-4,5(3H,10H)-diones” (NOVARTIS AG, priority 2012, dated 2017).

Tests used:
α-L-iduronidase W402X = experiment: α-L-iduronidase-W402X assay (restored enzyme activity in cell lysates, 4-MU iduronide substrate); format: cell-based, human; conditions: 48 h treatment; for W402X Amax [%]: paromomycin 14 mM as reference control; for AC50: Homo sapiens
Procedure: (§1) Activity of compounds of the present invention was examined using a functional readout for two clinically common stop codon (TAG) mutants (Q70X, W402X) of the lysosomal enzyme α-L-iduronidase. Lack of α-L-iduronidase expression in such stop codon patients leads to the lysosomal storage disorder Mucopolysaccharidosis I (MPSI) also called Hurler syndrome.
(§2) Reporter constructs analogous to constructs above were expressed. In the assay, 2500 cells/well were treated for 48 h with compound, washed with PBS and lysed (0.4 M Sodiumformate, 0.1% NaN3, 0.9% NaCl, 0.2% Triton, pH 3.5). Restored α-L-iduronidase activity in cell lysates was measured with the fluoresecent 4-MU iduronide substrate (4 Methylumbelliferyl α-L-iduronide) after 45 min incubation. Again, paromomycin was used as reference control (14 mM).

CFTR-Y122X = CFTR-Y122X assay (dual reporter isogenic Hek293 cell lines, Renilla luminescence readthrough); format: cell-based; conditions: Homo sapiens, HEK293; for Emax / AC50: nonsense mutation suppression, 24 h incubation; for Emax: 100% = 14 mM paromomycin, tested up to 100 μM, read-out: Amax [%]; for Emax at 100 µM: measured at 100 μM compound concentration (footnote d)
In short: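 Stable isogenic HEK dual-reporter line (eGFP–CFTR Y122X TGA PTC–myc–Renilla); 2000 cells/well, 24 h, then compound (10 μM; tested up to 100 μM) 24 h at 37 °C. Renilla luminescence normalised to neutral (0%) and 14 mM paromomycin (100%); wildtype construct counterscreen.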

[1] = tested on: human coagulation factor F9 containing the R29X (TAG) mutation; experiment: F9-R29X assay (full length F9 expression in isogenic HekR4 cells, imaging / F9 ELISA); format: cell-based; conditions: nonsense mutation suppression; for AC50: Homo sapiens
Procedure: Activity of compounds of the present invention was examined using reporter constructs of full length human coagulation factor F9 containing the R29X (TAG) mutation known from hemophilia B patients (“F9-R29X assay”). Full length F9 cDNA was stably expressed in the above isogenic HekR4 cell background. Stop codon readthrough and full length F9 expression was determined with a miniaturized confocal high throughput imaging assay. In paraformaldehyde fixed and permeabilized cells (10 uM compound; 24 h incubation) F9 expression was identified with a commercial F9 antibody raised against the F9 C-terminus. […] F9 staining intensity (Alexa-Fluor 488) and Draq5 nuclear staining served as readout for data calculation. Percent activity was measured in comparison to high (active control) and low controls (DMSO solvent).

α-L-iduronidase Q70X = experiment: α-L-iduronidase-Q70X assay (restored enzyme activity in cell lysates, 4-MU iduronide substrate); format: cell-based, human; conditions: 48 h treatment; for Q70X Amax [%]: paromomycin 14 mM as reference control; for AC50: Homo sapiens
Procedure: as §1, §2

[2] = read-out: Amax [%]: % nonsense mutation suppression relative to paromomycin reference activity

Row | Compound | Emax (CFTR-Y122X) [%] | AC50 (CFTR-Y122X) [µM] | other results
1 | Cn1c2ccccc2c(=O)c2c(=O)n(C3CCCCC3)c(-c3cccs3)nc21 [Example 2.17, 3-cyclohexyl-10-methyl-2-(thiophen-2-yl)pyrimido[4,5-b]quinoline-4,5(3H,10H)-dione] | 293 | 5.8 | W402X Amax [%] (α-L-iduronidase W402X): 211%; AC50 (α-L-iduronidase W402X): 2.9 µM; AC50 [1]: 5.4 µM; Amax [%] [1]: 157%; Q70X Amax [%] (α-L-iduronidase Q70X): 265%; AC50 (α-L-iduronidase Q70X): 2.1 µM
2 | Cn1c2ccccc2c(=O)c2c(=O)n(C3CCCCC3)c(-c3ccco3)nc21 [Example 2.20, 3-cyclohexyl-2-(furan-2-yl)-10-methylpyrimido[4,5-b]quinoline-4,5(3H,10H)-dione] | 201 | 2.3 | W402X Amax [%] (α-L-iduronidase W402X): 189%; AC50 (α-L-iduronidase W402X): 0.9 µM; AC50 [1]: 5.5 µM; Amax [%] [1]: 158%; Q70X Amax [%] (α-L-iduronidase Q70X): 386%; AC50 (α-L-iduronidase Q70X): 1 µM
3 | CC(C)c1nc2c(c(=O)c3ccccc3n2C)c(=O)n1C1CCCCC1 [Example 2.29, 3-cyclohexyl-2-isopropyl-10-methylpyrimido[4,5-b]quinoline-4,5(3H,10H)-dione] | 73 | 14.3 | –
4 | Cn1c2ccccc2c(=O)c2c(=O)n(C3CCCCC3)c(-c3cccc(Br)c3)nc21 [Example 2.30, 2-(3-bromophenyl)-3-cyclohexyl-10-methylpyrimido[4,5-b]quinoline-4,5(3H,10H)-dione] | 71 | 22.2 | –
5 | CCc1nc2c(c(=O)c3ccccc3n2C)c(=O)n1C1CCCCCC1 [Example 2.31, 3-cycloheptyl-2-ethyl-10-methylpyrimido[4,5-b]quinoline-4,5(3H,10H)-dione] | 67 | 2.5 | W402X Amax [%] (α-L-iduronidase W402X): 300%; AC50 (α-L-iduronidase W402X): 2.9 µM; AC50 [1]: 1.9 µM; Amax [%] [1]: 167%; Q70X Amax [%] (α-L-iduronidase Q70X): 438%; AC50 (α-L-iduronidase Q70X): 1.7 µM
6 | Cn1c2ccccc2c(=O)c2c(=O)n(C3CCCC3)c(-c3ccccc3F)nc21 [Example 2.32, 3-cyclopentyl-2-(2-fluorophenyl)-10-methylpyrimido[4,5-b]quinoline-4,5(3H,10H)-dione] | – | – | Emax at 100 µM (CFTR-Y122X; [2]): 43%
7 | Cn1c2ccccc2c(=O)c2c(=O)n(C3CCCC3)c(-c3ccc(F)cc3)nc21 [Example 2.33, 3-cyclopentyl-2-(4-fluorophenyl)-10-methylpyrimido[4,5-b]quinoline-4,5(3H,10H)-dione] | – | – | Emax at 100 µM (CFTR-Y122X; [2]): 18%
8 | Cc1ccccc1-c1nc2c(c(=O)c3ccccc3n2C)c(=O)n1C1CCCC1 [Example 2.34, 3-cyclopentyl-10-methyl-2-(o-tolyl)pyrimido[4,5-b]quinoline-4,5(3H,10H)-dione] | 33 | 8.4 | –
9 | Cn1c2ccccc2c(=O)c2c(=O)n(C3CCCC3)c(-c3ccccc3Cl)nc21 [Example 2.35, 2-(2-chlorophenyl)-3-cyclopentyl-10-methylpyrimido[4,5-b]quinoline-4,5(3H,10H)-dione] | 31 | 9.4 | –
10 | Cc1ccc(-c2nc3c(c(=O)c4ccccc4n3C)c(=O)n2C2CCCCC2)cc1 [Example 2.36, 3-cyclohexyl-10-methyl-2-(p-tolyl)pyrimido[4,5-b]quinoline-4,5(3H,10H)-dione] | 29 | 3.5 | –
11 | Cc1ccccc1-c1nc2c(c(=O)c3ccccc3n2C)c(=O)n1C1CCCCC1 [Example 2.37, 3-cyclohexyl-10-methyl-2-(o-tolyl)pyrimido[4,5-b]quinoline-4,5(3H,10H)-dione] | – | – | Emax at 100 µM (CFTR-Y122X; [2]): 28%
12 | Cn1c2ccccc2c(=O)c2c(=O)n(C3CCCCC3)c(-c3ccccc3Cl)nc21 [Example 2.38, 2-(2-chlorophenyl)-3-cyclohexyl-10-methylpyrimido[4,5-b]quinoline-4,5(3H,10H)-dione] | 21 | 10 | –
13 | Cn1c2ccccc2c(=O)c2c(=O)n(C3CCCC3)c(-c3ccccc3)nc21 [Example 2.39, 3-cyclopentyl-10-methyl-2-phenylpyrimido[4,5-b]quinoline-4,5(3H,10H)-dione] | – | – | Emax at 50 µM (CFTR-Y122X; measured at 50 μM compound concentration (footnote e), read-out: Amax [%]: % nonsense mutation suppression relative to paromomycin reference activity): 31%
14 | Cc1ccc(-c2nc3c(c(=O)c4ccccc4n3C)c(=O)n2C2CCCC2)cc1 [Example 2.40, 3-cyclopentyl-10-methyl-2-(p-tolyl)pyrimido[4,5-b]quinoline-4,5(3H,10H)-dione] | 20 | 6.7 | –
15 | Cn1c2ccccc2c(=O)c2c(=O)n(C3CCCCC3)c(-c3ccccc3F)nc21 [Example 2.41, 3-cyclohexyl-2-(2-fluorophenyl)-10-methylpyrimido[4,5-b]quinoline-4,5(3H,10H)-dione] | 18 | 4.9 | –
16 | COc1cc(-c2nc3c(c(=O)c4ccccc4n3C)c(=O)n2C2CCCCCC2)cc(OC)c1OC [Example 2.42, 3-cycloheptyl-10-methyl-2-(3,4,5-trimethoxyphenyl)pyrimido[4,5-b]quinoline-4,5(3H,10H)-dione] | 18 | 10.7 | –
17 | Cn1c2ccccc2c(=O)c2c(=O)n(C3CCCC3)c(-c3cccs3)nc21 [Example 2.43, 3-cyclopentyl-10-methyl-2-(thiophen-2-yl)pyrimido[4,5-b]quinoline-4,5(3H,10H)-dione] | 17 | 14.7 | –
18 | Cn1c2ccccc2c(=O)c2c(=O)n(C3CCCCC3)c(-c3ccc(Cl)cc3)nc21 [Example 2.44, 2-(4-chlorophenyl)-3-cyclohexyl-10-methylpyrimido[4,5-b]quinoline-4,5(3H,10H)-dione] | 16 | – | –
19 | Cn1c2ccccc2c(=O)c2c(=O)n(C3CCCCC3)c(-c3ccc([N+](=O)[O-])cc3)nc21 [Example 2.45, 3-cyclohexyl-10-methyl-2-(4-nitrophenyl)pyrimido[4,5-b]quinoline-4,5(3H,10H)-dione] | 14 | 11 | –
20 | Cn1c2ccccc2c(=O)c2c(=O)n(C3CCCCCC3)c(-c3cccc([N+](=O)[O-])c3)nc21 [Example 2.46, 3-cycloheptyl-10-methyl-2-(3-nitrophenyl)pyrimido[4,5-b]quinoline-4,5(3H,10H)-dione] | 12 | 4.2 | –
21 | COc1ccc(-c2nc3c(c(=O)c4ccccc4n3C)c(=O)n2C2CCCCCC2)cc1 [Example 2.47, 3-cycloheptyl-2-(4-methoxyphenyl)-10-methylpyrimido[4,5-b]quinoline-4,5(3H,10H)-dione] | 10 | 3.1 | –
22 | Cc1ccccc1-c1nc2c(c(=O)c3ccccc3n2C)c(=O)n1C1CCCCCC1 [Example 2.48, 3-cycloheptyl-10-methyl-2-(o-tolyl)pyrimido[4,5-b]quinoline-4,5(3H,10H)-dione] | – | – | Emax at 100 µM (CFTR-Y122X; [2]): 7%
23 | Cn1c2ccccc2c(=O)c2c(=O)n(C3CCCC3)c(-c3ccco3)nc21 [Example 2.49, 3-cyclopentyl-2-(furan-2-yl)-10-methylpyrimido[4,5-b]quinoline-4,5(3H,10H)-dione] | 7 | 1.8 | –
24 | Cn1c2ccccc2c(=O)c2c(=O)n(C3CCCCCC3)c(-c3cccc(Br)c3)nc21 [Example 2.50, 2-(3-bromophenyl)-3-cycloheptyl-10-methylpyrimido[4,5-b]quinoline-4,5(3H,10H)-dione] | 6 | 4.4 | –
25 | CC(C)c1nc2c(c(=O)c3cccc(Cl)c3n2C)c(=O)n1C1CCCC1 [Example 2.51, 9-chloro-3-cyclopentyl-2-isopropyl-10-methylpyrimido[4,5-b]quinoline-4,5(3H,10H)-dione] | – | – | Emax at 25 µM (CFTR-Y122X; measured at 25 μM compound concentration (footnote a), read-out: Amax [%]: % nonsense mutation suppression relative to paromomycin reference activity): 6%
26 | CCSc1nc2[nH]c3ccccc3c(=O)c2c(=O)n1-c1ccccc1 [Example 3.1, 2-(ethylthio)-3-phenylpyrimido[4,5-b]quinoline-4,5(3H,10H)-dione] | 65 | 5.8 | –
27 | CN(C)c1nc2[nH]c3ccccc3c(=O)c2c(=O)n1-c1ccccc1 [Example 3.2, 2-(dimethylamino)-3-phenylpyrimido[4,5-b]quinoline-4,5(3H,10H)-dione] | 294 | 11.6 | –
28 | CN(C)c1nc2c(c(=O)c3ccccc3n2C)c(=O)n1-c1ccccc1 [Example 3.3, 2-(dimethylamino)-10-methyl-3-phenylpyrimido[4,5-b]quinoline-4,5(3H,10H)-dione] | 18 | 3.5 | –
29 | NC[C@@H]1O[C@H](O[C@H]2[C@@H](O)[C@H](O[C@@H]3[C@@H](O)[C@H](N)C[C@H](N)[C@H]3O[C@H]3O[C@H](CO)[C@@H](O)[C@H](O)[C@H]3N)O[C@@H]2CO)[C@H](N)[C@@H](O)[C@@H]1O [paromomycin, reference compound] | – | – | EC50 (CFTR-Y122X; clone pursued for HTS assay development, read-out: EC50 (readthrough response of the selected clone)): 1500 µM
